Measurements taken from publication PMC9014651 (Bioorganic Chemistry, 2022).
Where a SMILES comes first, the peptide text is derived from it.

Tests used:
SARS-CoV-2 M^pro [1] = biological target: T1, SARS-CoV-2 M^pro (Severe acute respiratory syndrome coronavirus 2, UniProt P0DTD1); experiment: IC50 measurement on M^pro; type: biochemical
M^pro = details: cited from earlier work
SARS-CoV-2 M^pro [2] = biological target: T1, SARS-CoV-2 M^pro; experiment: FRET percent inhibition screening of M^pro inhibitors; type: biochemical; details: control experiments

Q: Which IC50 (SARS-CoV-2 M^pro [1]) does the source give for `Cc1ccccc1NC(=S)N/N=C/c1ccccc1O` [2n, (E)-1-(2-hydroxybenzylidene)-4-o-tolylthiosemicarbazide] here?
A: The IC50 was 20.7 µM.

Q: With `CSCC[C@@H](C=O)NC(=O)[C@H](CC(C)C)NC(=O)[C@H](CC(C)C)NC(C)=O` [calpain inhibitors II] (Ac-Leu-Leu-Met-aldehyde) as the compound, how does the “IC50 value range (M^pro)” value (M^pro) read?
A: The value was “single-digit to sub-micromolar”.

Q: Which “IC50 value range (M^pro)” value (M^pro) does the source give for `CC(C)(C)NC(=O)N[C@H](C(=O)N1C[C@H]2[C@@H]([C@H]1C(=O)NC(CC1CCC1)C(=O)C(N)=O)C2(C)C)C(C)(C)C` (stereo partly shown) [boceprevir] here?
A: The value was “single-digit to sub-micromolar”.

Q: Which “Effect of binding on M^pro stability (thermal shift)” value (M^pro) does the source give for `CCN(CC)C(=S)SSC(=S)N(CC)CC` [disulfiram] here?
A: Its value is “destabilization”.

Q: Which “Effect of binding on M^pro stability (thermal shift)” value (M^pro) does the source give for `O=c1c2ccccc2[se]n1-c1ccccc1` [Ebselen] here?
A: The value was “destabilization”.

Q: What about the “Reversibility of M^pro inhibition” value (M^pro) of the same compound?
A: The value was “irreversibly inhibit”.

Q: For `O=c1c2ccccc2sn1-c1ccccc1` [Ebsulfur], which “Reversibility of M^pro inhibition” value (M^pro) is on record?
A: The value was “irreversibly inhibit”.

Q: For `CC(C)C[C@H](NC(=O)OCc1ccccc1)C(=O)N[C@@H](CC1CCNC1=O)C(O)S(=O)(=O)[O-].[Na+]` (stereo partly shown) [GC-376], which “IC50 value range (M^pro)” value (M^pro) is on record?
A: The value was “single-digit to sub-micromolar”.

Q: For `CCCC(NC(=O)C(CC(C)C)NC(=O)OCc1ccccc1)C(=O)C(=O)NCc1ccccn1` (stereo not shown) [XII], which “IC50 value range (M^pro)” value (M^pro) is on record?
A: Its value is “single-digit to sub-micromolar”.

Q: For `O=C(CC(c1ccccc1)c1ccccc1)NO` [N-hydroxy-3,3-diphenylpropanamide], which “Inhibitory effect on M^pro (control experiment)” value (SARS-CoV-2 M^pro [2]) is on record?
A: Its value is “no inhibitory effect”.
